Where a SMILES comes first, the peptide text is derived from it. [ ]: non-standard residue; d: D form. The star is where a group is joined. X3 = O=C(O)CCCCCCCCCCCCCCCCCCC(=O)NCC1CCC(C(=O)N[C@@H](CCC(=O)NCCOCCOCC(=O)NCCOCCOCC(=O)NCCCC[C@H](NC(=O)COCCOCCNC(=O)COCCOCCNC(=O)CC[C@H](NC(=O)C2CCC(CNC(=O)CCCCCCCCCCCCCCCCCCC(=O)O)CC2)C(=O)O)C(=O)*)C(=O)O)CC1; X2 = O=C(O)CCCCCCCCCCCCCCCCCCC(=O)N1CCC(C(=O)N[C@@H](CCC(=O)NCCOCCOCC(=O)NCCOCCOCC(=O)NCCCC[C@H](NC(=O)COCCOCCNC(=O)COCCOCCNC(=O)CC[C@H](NC(=O)C2CCN(C(=O)CCCCCCCCCCCCCCCCCCC(=O)O)CC2)C(=O)O)C(=O)*)C(=O)O)CC1; X1 = O=C(O)CCCCCCCCCCCCCCCCCCC(=O)N[C@@H](CCC(=O)NCCOCCOCC(=O)NCCOCCOCC(=O)NCCCC[C@H](NC(=O)COCCOCCNC(=O)COCCOCCNC(=O)CC[C@H](NC(=O)CCCCCCCCCCCCCCCCCCC(=O)O)C(=O)O)C(=O)*)C(=O)O; Aib = CC(C)(N)C(=O)O
Experiments:
in vivo = settings: male, Göttingen, minipig, iv
Description: (§1) This is done in a pharmacokinetic (PK) study, where the terminal half-life of the derivative in question is determined. By terminal half-life is meant the time it takes to halve a certain plasma concentration in the terminal elimination phase.
(§2) Male Göttingen minipigs were obtained from Ellegaard Göttingen Minipigs (Dalmose, Denmark) approximately 7-14 months of age and weighing approximately 16-35 kg were used in the studies. The minipigs were housed either individually (pigs with permanent catheters) or in a group and fed restrictedly once or twice daily with SDS minipig diet (Special Diets Services, Essex, UK).
(§3) After at least 2 weeks of acclimatisation two permanent central venous catheters were implanted in vena cava caudalis or cranialis in each animal. The animals were allowed 1 week recovery after the surgery, and were then used for repeated pharmacokinetic studies with a suitable wash-out period between successive GLP-1 derivative dosings.
(§4) Blood samples (for example 0.8 ml) were collected in EDTA buffer (8 mM) and then centrifuged at 4° C. and 1942 G for 10 minutes.
(§5) Plasma was pipetted into Micronic tubes on dry ice, and kept at −20° C. until analysed for plasma concentration of the respective GLP-1 compound using LOCI. Individual plasma concentration-time profiles were analyzed by a non-compartmental pharmacokinetic method in Phoenix v. 6.2 (Pharsight Inc., Mountain View, Calif., USA), or other relevant software for PK analysis, and the resulting terminal half-lives (harmonic mean) determined.

[1] = Pharmacokinetic study in minipigs (i.v.)
Description: as §1, §2, §3, §4, §5

SMILES | half-life (in vivo) [h] | also measured
CC[C@H](C)[C@H](NC(=O)[C@H](Cc1ccccc1)NC(=O)[C@H](CCC(=O)O)NC(=O)[C@H](CCCNC(=N)N)NC(=O)[C@H](C)NC(=O)[C@H](C)NC(=O)[C@H](CCC(N)=O)NC(=O)[C@H](CCC(=O)O)NC(=O)[C@H](CCC(=O)O)NC(=O)[C@H](CC(C)C)NC(=O)[C@H](Cc1ccc(O)cc1)NC(=O)[C@H](CO)NC(=O)[C@H](CO)NC(=O)[C@@H](NC(=O)[C@H](CC(=O)O)NC(=O)[C@H](CO)NC(=O)[C@@H](NC(=O)[C@H](Cc1ccccc1)NC(=O)[C@@H](NC(=O)CNC(=O)[C@H](CCC(=O)O)NC(=O)C(C)(C)NC(=O)[C@@H](N)Cc1c[nH]cn1)[C@@H](C)O)[C@@H](C)O)C(C)C)C(=O)N[C@@H](C)C(=O)N[C@@H](Cc1c[nH]c2ccccc12)C(=O)N[C@@H](CC(C)C)C(=O)N[C@H](C(=O)N[C@@H](CCCNC(=N)N)C(=O)NCC(=O)N[C@@H](CCCNC(=N)N)C(=O)NCC(=O)N[C@@H](CCCCNC(=O)[C@H](CCCCNC(=O)COCCOCCNC(=O)COCCOCCNC(=O)CC[C@H](NC(=O)CCCCCCCCCCCCCCCCCCC(=O)O)C(=O)O)NC(=O)COCCOCCNC(=O)COCCOCCNC(=O)CC[C@H](NC(=O)CCCCCCCCCCCCCCCCCCC(=O)O)C(=O)O)C(=O)O)C(C)C [Example 9, N{Alpha}([Aib8,Glu22,Arg26,Arg34]-GLP-1-(7-37)-peptidyl)-N{Epsilon}[(2S)-2,6-bis[[2-[2-[2-[[2-[2-[2-[[(4S)-4-carboxy-4-(19-carboxynonadecanoylamino)butanoyl]amino]ethoxy]ethoxy]acetyl]amino]ethoxy]ethoxy]acetyl]amino]hexanoyl]Lys] (H-H[Aib]EGTFTSDVSSYLEEQAAREFIAWLVRGRGK(X1)-OH; N-terminus and C-terminus assumed) | 131 | 
CC[C@H](C)[C@H](NC(=O)[C@H](Cc1ccccc1)NC(=O)[C@H](CCC(=O)O)NC(=O)[C@H](CCCNC(=N)N)NC(=O)[C@H](C)NC(=O)[C@H](C)NC(=O)[C@H](CCC(N)=O)NC(=O)[C@H](CCC(=O)O)NC(=O)[C@H](CCC(=O)O)NC(=O)[C@H](CC(C)C)NC(=O)[C@H](Cc1ccc(O)cc1)NC(=O)[C@H](CO)NC(=O)[C@H](CO)NC(=O)[C@@H](NC(=O)[C@H](CC(=O)O)NC(=O)[C@H](CO)NC(=O)[C@@H](NC(=O)[C@H](Cc1ccccc1)NC(=O)[C@@H](NC(=O)CNC(=O)[C@H](CCC(=O)O)NC(=O)C(C)(C)NC(=O)[C@@H](N)Cc1c[nH]cn1)[C@@H](C)O)[C@@H](C)O)C(C)C)C(=O)N[C@@H](C)C(=O)N[C@@H](Cc1c[nH]c2ccccc12)C(=O)N[C@@H](CC(C)C)C(=O)N[C@H](C(=O)N[C@@H](CCCNC(=N)N)C(=O)NCC(=O)N[C@@H](CCCNC(=N)N)C(=O)N[C@@H](CCCCNC(=O)[C@H](CCCCNC(=O)COCCOCCNC(=O)COCCOCCNC(=O)CC[C@H](NC(=O)CCCCCCCCCCCCCCCCCCC(=O)O)C(=O)O)NC(=O)COCCOCCNC(=O)COCCOCCNC(=O)CC[C@H](NC(=O)CCCCCCCCCCCCCCCCCCC(=O)O)C(=O)O)C(=O)O)C(C)C [Example 6, N{Epsilon-37}-[(2S)-2,6-bis[[2-[2-[2-[[2-[2-[2-[[(4S)-4-carboxy-4-(19-carboxynonadecanoylamino)butanoyl]amino]ethoxy]ethoxy]acetyl]amino]ethoxy]ethoxy]acetyl]amino]hexanoyl]-[Aib8,Glu22,Arg26,Arg34,Lys37]-GLP-1-(7-37)-peptide] | 128 | 
CC[C@H](C)[C@H](NC(=O)[C@H](Cc1ccccc1)NC(=O)[C@H](CCC(=O)O)NC(=O)[C@H](CCCNC(=N)N)NC(=O)[C@H](C)NC(=O)[C@H](C)NC(=O)[C@H](CCC(N)=O)NC(=O)[C@H](CCC(=O)O)NC(=O)[C@H](CCC(=O)O)NC(=O)[C@H](CC(C)C)NC(=O)[C@H](Cc1ccc(O)cc1)NC(=O)[C@H](CO)NC(=O)[C@H](CO)NC(=O)[C@@H](NC(=O)[C@H](CC(=O)O)NC(=O)[C@H](CO)NC(=O)[C@@H](NC(=O)[C@H](Cc1ccccc1)NC(=O)[C@@H](NC(=O)CNC(=O)[C@H](CCC(=O)O)NC(=O)C(C)(C)NC(=O)[C@@H](N)Cc1c[nH]cn1)[C@@H](C)O)[C@@H](C)O)C(C)C)C(=O)N[C@@H](C)C(=O)N[C@@H](Cc1c[nH]c2ccccc12)C(=O)N[C@@H](CC(C)C)C(=O)N[C@H](C(=O)N[C@@H](CCCNC(=N)N)C(=O)NCC(=O)N[C@@H](CCCNC(=N)N)C(=O)NCC(=O)NCC(=O)N[C@@H](CO)C(=O)N[C@@H](CCCCNC(=O)[C@H](CCCCNC(=O)COCCOCCNC(=O)COCCOCCNC(=O)CC[C@H](NC(=O)C1CCC(CNC(=O)CCCCCCCCCCCCCCCCCCC(=O)O)CC1)C(=O)O)NC(=O)COCCOCCNC(=O)COCCOCCNC(=O)CC[C@H](NC(=O)C1CCC(CNC(=O)CCCCCCCCCCCCCCCCCCC(=O)O)CC1)C(=O)O)C(=O)O)C(C)C (stereo partly drawn) [Example 3, [Aib8,Glu22,Arg26,Arg34]-GLP-1-(7-37)-peptidyl-Gly-Ser-N{Epsilon}[(2S)-2,6-bis[[2-[2-[2-[[2-[2-[2-[[(4S)-4-carboxy-4-[[4-[(19-carboxynonadecanoylamino)methyl]cyclohexanecarbonyl]amino]butanoyl]amino]ethoxy]ethoxy]acetyl]amino]ethoxy]ethoxy]acetyl]amino]hexanoyl]Lys] (H-H[Aib]EGTFTSDVSSYLEEQAAREFIAWLVRGRGGSK(X3)-OH) |  | Terminal half-live ([1]; minipigs, i.v., 2 nmol/kg, harmonic mean): 122 h
CC[C@H](C)[C@H](NC(=O)[C@H](Cc1ccccc1)NC(=O)[C@H](CCC(=O)O)NC(=O)[C@H](CCCNC(=N)N)NC(=O)[C@H](C)NC(=O)[C@H](C)NC(=O)[C@H](CCC(N)=O)NC(=O)[C@H](CCC(=O)O)NC(=O)[C@H](CCC(=O)O)NC(=O)[C@H](CC(C)C)NC(=O)[C@H](Cc1ccc(O)cc1)NC(=O)[C@H](CO)NC(=O)[C@H](CO)NC(=O)[C@@H](NC(=O)[C@H](CC(=O)O)NC(=O)[C@H](CO)NC(=O)[C@@H](NC(=O)[C@H](Cc1ccccc1)NC(=O)[C@@H](NC(=O)CNC(=O)[C@H](CCC(=O)O)NC(=O)C(C)(C)NC(=O)[C@@H](N)Cc1c[nH]cn1)[C@@H](C)O)[C@@H](C)O)C(C)C)C(=O)N[C@@H](C)C(=O)N[C@@H](Cc1c[nH]c2ccccc12)C(=O)N[C@@H](CC(C)C)C(=O)N[C@H](C(=O)N[C@@H](CCCNC(=N)N)C(=O)NCC(=O)N[C@@H](CCCNC(=N)N)C(=O)NCC(=O)N[C@@H](CCCCNC(=O)[C@H](CCCCNC(=O)COCCOCCNC(=O)COCCOCCNC(=O)CC[C@H](NC(=O)C1CCN(C(=O)CCCCCCCCCCCCCCCCCCC(=O)O)CC1)C(=O)O)NC(=O)COCCOCCNC(=O)COCCOCCNC(=O)CC[C@H](NC(=O)C1CCN(C(=O)CCCCCCCCCCCCCCCCCCC(=O)O)CC1)C(=O)O)C(=O)O)C(C)C [Example 18, N{Alpha}([Aib8,Glu22,Arg26,Arg34]-GLP-1-(7-37)-peptidyl)-N{Epsilon}[(2S)-2,6-bis[[2-[2-[2-[[2-[2-[2-[[(4S)-4-carboxy-4-[[1-(19-carboxynonadecanoyl)piperidine-4-carbonyl]amino]butanoyl]amino]ethoxy]ethoxy]acetyl]amino]ethoxy]ethoxy]acetyl]amino]hexanoyl]Lys] (H-H[Aib]EGTFTSDVSSYLEEQAAREFIAWLVRGRGK(X2)-OH) |  | half-life ([1]; male, Göttingen, minipig, plasma, iv, 15 nmol/kg): 140 h

Source: patent US10195255B2, “GLP-1 derivatives and uses thereof” (Novo Nordisk A/S, priority 2013, dated 2019)
